ED50 and PD50 data for 15 compounds are collected here from patent publication EP0153803A2, “Triazole antifungal agents” (Pfizer Limited, priority 1984, dated 1985).

A value given as a limit tells only on which side of the number the result lay.

One test has as its system Candida albicans. Put plainly: in vivo protection of mice inoculated with Candida albicans (PD50). The following applies: Candida albicans, 48 h, vs. Candida albicans in mice; dose giving 50% protection against lethal effect of the infection, 48 hours observation; route not given. The protocol: The in vivo evaluation of the compounds can be carried out at a series of dose levels by intraperitoneal or intravenous injection or by oral administration, to mice which are inoculated with a strain of Candida albicans. Activity is based on the survival of a treated group of mice after the death of an untreated group of mice following 48 hours observation.- The dose level at which the compound provides 50% protection (PD50) against the lethal effect of the infection is noted. Using the test method described in the text, the following PD50 values were obtained vs. Candida albicans in mice:-
For orientation: ED50 means the dose that gives a 50% effect, or the effect in half of the subjects. Read a low ED50 as greater potency. Compound `CC(C)(n1cncn1)C(O)(c1ccc(Cl)cc1)c1ccc(Cl)cc1` [Example 3] registered an ED50 of less than 1 mg/kg.

As for `CC(C)(n1cncn1)C(O)(c1ccc(F)cc1)c1ccc(F)cc1` [Example 6, 1,1-Bis(4-fluorophenyl)-2-methyl-2-(1H-1,2,4-triazol-1-yl)propan-l-ol], the ED50 amounted to 1.6 mg/kg.

The compound `OC(c1ccc(F)cc1F)(c1ccc(F)cc1F)C(F)n1cncn1` (racemic) [Example 11] displayed an ED50 of less than 1 mg/kg.

With `CC(C)(n1cncn1)C(O)(c1ccc(Cl)cc1)c1ccc(F)cc1F` (racemic) [Example 4], it took a dose of 2.3 mg/kg to reach the 50% effect level (ED50).

In the case of `OC(c1ccc(Cl)cc1)(c1ccc(Cl)cc1Cl)C(F)n1cncn1` (single isomer, unassigned) [Example 10], the ED50 came to 3.2 mg/kg.

`OC(c1ccc(F)cc1)(c1ccc(Cl)cc1Cl)C(F)n1cncn1` (single isomer, unassigned) [Example 9 (diastereomer I)] displayed an ED50 of 0.3 mg/kg. This ED50 is about 11-fold lower than that of the compound before.

Regarding `CC(n1cncn1)C(O)(c1ccc(F)cc1)c1ccc(F)cc1F` (single isomer, unassigned) [Example 2], the ED50 was less than 1 mg/kg.

Compound `OC(c1ccc(F)cc1)(c1ccc(F)cc1)C(F)n1cncn1` (stereo not drawn) [Example 8, 2-Fluoro-1,1-di-(4-fluorophenyl)-2-(1,2,4-triazol-1-yl)ethanol] gave an ED50 of 0.3 mg/kg.

`CC(C)(n1cncn1)C(O)(c1ccc(F)cc1)c1ccc(F)cc1F` (racemic) [Example 5] yielded an ED50 of 2.2 mg/kg.

`CC(F)(n1cncn1)C(O)(c1ccc(Cl)cc1)c1ccc(F)cc1F` (stereo not drawn) [Example 1, 1-(4-Chlorophenyl)-1-(2,4-difluorophenyl)-2-fluoro-2-(1H-3,2,4-triazol-1-yl)propan-1-ol] had a median effective dose (ED50) of 0.95 mg/kg.

Still in this test, the particulars now being: vs. Candida albicans in mice; dose giving 50% protection against lethal effect of the infection, 48 hours observation; route not given; 2880 min.
Regarding `OC(c1ccc(Cl)cc1)(c1ccc(F)cc1F)C(F)n1cncn1` (single isomer, unassigned) [Example 7 (diastereomer II), 1-(4-Chloroghenyl)-1-(2,4-difiuorophenyl)-2-fiuoro-2-(1H-1,2,4-triazol-l-yl)-ethanol], the PD50 was found to be 0.3 mg/kg.

In the case of `OC(c1ccc(F)cc1)(c1ccc(F)cc1)C(F)n1cncn1` (single isomer, unassigned) [Example 12(-)], the PD50 came to 0.2 mg/kg.

The compound `OC(c1ccc(F)cc1)(c1ccc(Cl)cc1Cl)C(F)n1cncn1` (single isomer, unassigned) [Example 9 (diastereomer II)] yielded a PD50 of 0.5 mg/kg.

The compound `OC(c1ccc(F)cc1)(c1ccc(F)cc1)C(F)n1cncn1` (single isomer, unassigned) [Example 12(+)] showed a PD50 of 0.75 mg/kg.

In turn, `OC(c1ccc(Cl)cc1)(c1ccc(F)cc1F)C(F)n1cncn1` (single isomer, unassigned) [Example 7 (diastereomer I), 1-(4-Chloroghenyl)-1-(2,4-difiuorophenyl)-2-fiuoro-2-(1H-1,2,4-triazol-l-yl)-ethanol] showed a PD50 of 1.6 mg/kg.
